“And” between values parts separate entries of the source, which are not always exact repeats. Identical values can stand only once. “Also recorded” adds a separate entry of the source.
How the values were obtained:
[1] = Phase I: plasma pharmacokinetics (non-compartmental analysis); type: in vivo, human; details: for AUC0-t / Cmax / Thalf / Tmax: Cycle 2, plasma, first dose of cycle; for AUC0-t / Cmax / Thalf: mean; for Tmax: median
Description: Plasma PK parameters for AB-16B5 were derived from the concentration-time profiles following the first dose of Cycle 1 and the first dose of Cycle 2 using a non-compartmental analysis (NCA) with Phoenix WinNonlin.

[2] = Non-clinical pharmacokinetics, single and repeat-dose, rats; type: in vivo; details: Sprague-Dawley rats; infusion
Description: There was an approximate 70% increase in systemic exposure following repeated dosing from Day 1 to Day 26 which is consistent with the elimination half-life of AB-16B5 and the dosing intervals. […] The sCLU concentrations were generally back to their baseline levels after 3 to 5 days. The concurrent decrease in sCLU concentrations immediately following dosing with AB-16B5 is consistent with an antigen-sink phenomenon.

[3] = Phase I study AB-16B5-101: safety profile; type: in vivo, human
[4] = tested on: frozen tissues from human, Rhesus monkey, and Sprague-Dawley rat; test: Tissue cross-reactivity study; type: binding; details: AB-16B5 staining at 2 and 10 μg/mL
Procedure: In addition, a tissue cross-reactivity study was conducted to determine the potential cross-reactivity of AB-16B5 with frozen tissues from human, Rhesus monkey, and Sprague-Dawley rat tissues.

[5] = tested on: advanced solid malignancy; test: Phase I study AB-16B5-101: tumor response (RECIST); type: in vivo, human
E-cadherin, vimentin = test: Phase I: immunohistochemistry on paired tumor biopsies (epithelial phenotype); type: in vivo, human
Procedure: Immunohistochemistry studies were conducted on paired tumor biopsies to determine if the treatment with AB-16B5 was associated with a reacquisition of an epithelial phenotype.

[6] = RECIST-evaluable population (14 subjects), 1.5-12.0 mg/kg
[7] = Subject 001, Pancreatic, 1.5 mg/kg weekly IV, 2 cycles
[8] = Subject 003, Soft Tissue Sarcoma, 6.0 mg/kg weekly IV, 2 cycles
[9] = Subject 005, Prostate, 6.0 mg/kg weekly IV, 2 cycles
[10] = Subject 010, Colorectal, 12.0 mg/kg weekly IV, 4 cycles
[11] = Subject 012, Breast, 12.0 mg/kg weekly IV, 2 cycles
[12] = Subject 013, Prostate, 12.0 mg/kg weekly IV, 2 cycles
[13] = Subject 014, Vulvar Melanoma, 12.0 mg/kg weekly IV, 2 cycles

Substance: AB-16B5: humanized IgG2 monoclonal antibody targeting sCLU; light chain SEQ ID NO:11, heavy chain SEQ ID NO:12
- AUC0-t ([1]; 6.0 mg/kg (N = 3)): 1,351,156 ng*h/mL
- Cmax ([1]; 6.0 mg/kg (N = 3)): 120,466 ng/mL
- Thalf ([1]; 6.0 mg/kg (N = 3)): 7.70 h
- Tmax ([1]; 6.0 mg/kg (N = 3)): 1.03 h
- AUC0-t ([1]; 9.0 mg/kg (N = 3)): 2,459,988 ng*h/mL
- Cmax ([1]; 9.0 mg/kg (N = 3)): 163,840 ng/mL
- Thalf ([1]; 9.0 mg/kg (N = 3)): 13.75 h
- Tmax ([1]; 9.0 mg/kg (N = 3)): 1.08 h
- AUC0-t ([1]; 12.0 mg/kg (N = 7)): 4,147,243 ng*h/mL
- Cmax ([1]; 12.0 mg/kg (N = 7)): 230,268 ng/mL
- Thalf ([1]; 12.0 mg/kg (N = 7)): 21.04 h
- Tmax ([1]; 12.0 mg/kg (N = 7)): 1.04 h
- increase of mean Cmax and AUC0-t (systemic exposure) with the dose ([1]; dose range of 3.0 to 12.0 mg/kg, Cycle 1 and Cycle 2): dose proportional
- accumulation of AB-16B5 between Cycle 1 and Cycle 2 ([1]; weekly IV infusion): No significant accumulation
- systemic exposure over 24 hours with increasing dose levels [2]: dose proportional manner
- subjects reporting SAEs ([3]; 5 of 15 subjects, all SAEs considered unrelated to AB-16B5): 33%
- AEs reported, total ([3]; 15 subjects, all causalities): 167
- dose at which weekly infusion was safe and well tolerated ([3]; 60-minute IV weekly infusion): up to 12 mg/kg
- dose-limiting toxicity ([3]; 60-minute IV weekly infusion, 1.5 to 12.0 mg/kg, 15 subjects): No dose-limiting toxicity; also recorded: No dose-limiting toxicities
- deaths reported in the study ([3]; Subjects 004 and 014, associated with progression of the disease): Two
- number of SAEs ([3]; all considered unrelated to AB-16B5): 6 and 5
- AEs of Grade 3 to 5 ([3]; reported by 8 subjects): 12
- subjects who discontinued the study due to an adverse event ([3]; two subjects (004, 011)): 13%
- membrane staining in tissue panels [4]: no membrane staining was observed
- best overall response progressive disease (PD), number of subjects [5, 6]: 6 subjects
- best overall response progressive disease (PD), share of subjects [5, 6]: 43%
- best overall response stable disease (SD), number of subjects [5, 6]: 8 subjects
- best overall response stable disease (SD), share of subjects [5, 6]: 57%
- Best Overall Response [5, 7]: PD (progressive disease (PD))
- Tumor Response at Last Assessment Non-Target Lesions [5, 7]: PD (New (progressive disease (PD))
- Tumor Response at Last Assessment Target Lesions [5, 7]: PD (progressive disease (PD))
- Tumor Response at Last Assessment Target Lesions ([5]; Subject 002, Endometrium, 3.0 mg/kg weekly IV, 4 cycles): PD (progressive disease (PD))
- Best Overall Response [5, 8]: PD (progressive disease (PD))
- Tumor Response at Last Assessment Non-Target Lesions [5, 8]: PD (New (progressive disease (PD))
- Best Overall Response [5, 9]: PD (progressive disease (PD))
- Tumor Response at Last Assessment Target Lesions [5, 9]: PD (progressive disease (PD))
- Tumor Response at Last Assessment Non-Target Lesions ([5]; Subject 007, Gastric, 9.0 mg/kg weekly IV, 8 cycles): PD (New (progressive disease (PD))
- Tumor Response at Last Assessment Non-Target Lesions ([5]; Subject 008, Thyroid, 9.0 mg/kg weekly IV, 4 cycles): PD (New (progressive disease (PD))
- Tumor Response at Last Assessment Non-Target Lesions ([5]; Subject 009, Lung, 12.0 mg/kg weekly IV, 6 cycles): PD (New (progressive disease (PD))
- Tumor Response at Last Assessment Non-Target Lesions [5, 10]: PD (New (progressive disease (PD))
- Tumor Response at Last Assessment Target Lesions [5, 10]: PD (progressive disease (PD))
- Best Overall Response [5, 11]: PD (progressive disease (PD))
- Tumor Response at Last Assessment Non-Target Lesions [5, 11]: PD (progressive disease (PD))
- Best Overall Response [5, 12]: PD (progressive disease (PD))
- Tumor Response at Last Assessment Non-Target Lesions [5, 12]: PD (New (progressive disease (PD))
- Best Overall Response [5, 13]: PD (progressive disease (PD))
- Tumor Response at Last Assessment Non-Target Lesions [5, 13]: PD (New (progressive disease (PD))
- Tumor Response at Last Assessment Non-Target Lesions ([5]; Subject 015, Ovarian Cancer, 12.0 mg/kg weekly IV, 4 cycles): PD (New (progressive disease (PD))
- time on treatment with stable disease (SD) and clinical benefit ([5]; patient with advanced gastric cancer): 24 weeks
- E-cadherin Expression in Post-Treatment (E-cadherin, vimentin; Subject 006, Breast, biopsy site Skin, 9.0 mg/kg): Increase
- E-cadherin Expression in Post-Treatment (E-cadherin, vimentin; Subject 007, Gastric, biopsy site Gastric, 9.0 mg/kg): Increase
- vimentin expression after treatment (E-cadherin, vimentin; Subject 007, advanced gastric cancer, paired tumor biopsies): loss of vimentin expression
- E-cadherin Expression in Post-Treatment (E-cadherin, vimentin; Subject 012, Breast, biopsy site Skin, 12.0 mg/kg): Decrease
- E-cadherin Expression in Post-Treatment (E-cadherin, vimentin; Subject 013, Prostate, biopsy site Bladder, 12.0 mg/kg): did not change; also recorded: No change
